From patent publication US20240360165A1, “INHIBITORS OF CYCLIN DEPENDENT KINASE 7 (CDK7)” (Syros Pharmaceuticals, Inc., priority 2016, published 2024)
Where two headings read alike, the source gives them in different places.

Experiments:
[1] = target: CDK2/Cyclin E1 complex (Homo sapiens, UniProt P24941); test: CDK2 inhibition assay (Caliper/LabChip EZ Reader kinase assay); assay type: biochemical; conditions: Table 1, CDK2/Cyclin E1 0.5 nM, ATP 2 mM, 35 min at 27° C.
Outline: (§1)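 Activity read as fluorescent peptide conversion on a LabChip EZ Reader. For CDK2/Cyclin E1 (0.5 nM), substrate was 5-FAM-CDK7tide (2 μM) with 2 mM MgCl2; for CDK9/Cyclin T1 (8 nM), 5-FAM-CDK9tide (2 μM) with 10 mM MgCl2.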

[2] = system: A673 cells; test: Inhibition of proliferation of A673 cells (CyQUANT, 72 hour); assay type: cell-based, human; conditions: A673 cells, 72 hour, CyQUANT, read-out: Inhibition of Proliferation of A673 Cells (calculated IC50)
Outline: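 Proliferation read-out by CyQUANT after a 72 h exposure, compounds spanning 4 μM–[…] in half-log steps. A673 cells cultured at 37° C under 5% CO2 in DMEM supplemented with 10% FBS plus 1 mM sodium pyruvate.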

[3] = system: HCC70 cells; test: Inhibition of proliferation of HCC70 cells (CyQUANT Direct Cell Proliferation Assay, 72 hour); assay type: cell-based, human; conditions: read-out: Inhibition of Proliferation of HCC70 Cells (calculated IC50)
Outline: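 Human triple-negative breast cancer HCC70 cells cultured at 37° C, 5% CO2, with compound for 72 hour. Anti-proliferative effect read by CyQUANT Direct Cell Proliferation Assay. Dinaciclib, a CDK inhibitor analog and triptolide served as positive controls.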

[4] = target: T1, CDK12 (aa686-1082)/Cyclin K complex (Homo sapiens, UniProt Q9NYV4); test: CDK12 inhibition assay (Caliper/LabChip EZ Reader kinase assay); assay type: biochemical; conditions: Table 1, CDK12 (aa686-1082)/Cyclin K 50 nM, ATP 2 mM, 3 hr at 27° C.
T1 construct: CDK12 (aa686-1082)/Cyclin K complex
T1 sequence (Q9NYV4 686-1082, species assumed): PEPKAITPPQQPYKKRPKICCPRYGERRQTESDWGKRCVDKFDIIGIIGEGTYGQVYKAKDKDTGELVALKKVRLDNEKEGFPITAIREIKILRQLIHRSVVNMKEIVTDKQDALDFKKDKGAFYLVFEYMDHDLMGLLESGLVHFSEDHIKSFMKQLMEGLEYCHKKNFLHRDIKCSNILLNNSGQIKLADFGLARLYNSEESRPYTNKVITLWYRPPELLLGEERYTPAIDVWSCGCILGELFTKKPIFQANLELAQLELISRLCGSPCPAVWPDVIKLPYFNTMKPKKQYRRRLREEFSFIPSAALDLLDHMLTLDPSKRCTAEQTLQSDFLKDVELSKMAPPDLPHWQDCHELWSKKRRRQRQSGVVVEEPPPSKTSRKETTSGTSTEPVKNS
T1 sequence (O75909 whole entry partner, species assumed, the tested form may be a part): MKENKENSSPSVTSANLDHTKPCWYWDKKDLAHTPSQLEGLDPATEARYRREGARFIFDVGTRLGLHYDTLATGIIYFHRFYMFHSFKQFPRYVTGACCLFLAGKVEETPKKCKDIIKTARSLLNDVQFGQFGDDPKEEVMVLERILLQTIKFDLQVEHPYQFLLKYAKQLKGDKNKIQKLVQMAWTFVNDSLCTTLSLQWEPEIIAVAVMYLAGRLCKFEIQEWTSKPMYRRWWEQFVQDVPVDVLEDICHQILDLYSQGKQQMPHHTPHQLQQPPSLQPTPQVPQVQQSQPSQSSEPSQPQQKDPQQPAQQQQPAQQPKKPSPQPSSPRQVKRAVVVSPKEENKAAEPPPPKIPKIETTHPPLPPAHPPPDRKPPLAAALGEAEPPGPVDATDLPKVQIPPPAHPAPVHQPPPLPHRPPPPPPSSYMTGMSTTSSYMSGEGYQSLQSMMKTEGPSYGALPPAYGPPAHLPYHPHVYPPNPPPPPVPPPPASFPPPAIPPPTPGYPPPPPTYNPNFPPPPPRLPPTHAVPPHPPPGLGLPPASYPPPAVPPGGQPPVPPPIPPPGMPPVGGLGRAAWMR

[5] = target: CDK9/Cyclin T1 complex (Homo sapiens, UniProt P50750); test: CDK9 inhibition assay (Caliper/LabChip EZ Reader kinase assay); assay type: biochemical; conditions: Table 1, CDK9/Cyclin T1 8 nM, ATP 2 mM, 15 min at 27° C.
CDK9/Cyclin T1 complex, sequence (P50750 whole entry, species assumed): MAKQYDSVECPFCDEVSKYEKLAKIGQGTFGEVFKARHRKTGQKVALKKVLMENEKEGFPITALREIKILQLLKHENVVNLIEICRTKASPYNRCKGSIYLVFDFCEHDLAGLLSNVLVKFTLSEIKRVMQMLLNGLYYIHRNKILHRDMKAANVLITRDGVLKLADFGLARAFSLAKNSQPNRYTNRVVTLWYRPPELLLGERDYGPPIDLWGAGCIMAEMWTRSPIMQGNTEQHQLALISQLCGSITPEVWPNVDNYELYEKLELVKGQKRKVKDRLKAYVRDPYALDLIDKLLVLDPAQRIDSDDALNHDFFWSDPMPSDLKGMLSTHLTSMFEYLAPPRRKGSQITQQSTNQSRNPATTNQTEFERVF
CDK9/Cyclin T1 complex, sequence (O60563 whole entry partner, species assumed): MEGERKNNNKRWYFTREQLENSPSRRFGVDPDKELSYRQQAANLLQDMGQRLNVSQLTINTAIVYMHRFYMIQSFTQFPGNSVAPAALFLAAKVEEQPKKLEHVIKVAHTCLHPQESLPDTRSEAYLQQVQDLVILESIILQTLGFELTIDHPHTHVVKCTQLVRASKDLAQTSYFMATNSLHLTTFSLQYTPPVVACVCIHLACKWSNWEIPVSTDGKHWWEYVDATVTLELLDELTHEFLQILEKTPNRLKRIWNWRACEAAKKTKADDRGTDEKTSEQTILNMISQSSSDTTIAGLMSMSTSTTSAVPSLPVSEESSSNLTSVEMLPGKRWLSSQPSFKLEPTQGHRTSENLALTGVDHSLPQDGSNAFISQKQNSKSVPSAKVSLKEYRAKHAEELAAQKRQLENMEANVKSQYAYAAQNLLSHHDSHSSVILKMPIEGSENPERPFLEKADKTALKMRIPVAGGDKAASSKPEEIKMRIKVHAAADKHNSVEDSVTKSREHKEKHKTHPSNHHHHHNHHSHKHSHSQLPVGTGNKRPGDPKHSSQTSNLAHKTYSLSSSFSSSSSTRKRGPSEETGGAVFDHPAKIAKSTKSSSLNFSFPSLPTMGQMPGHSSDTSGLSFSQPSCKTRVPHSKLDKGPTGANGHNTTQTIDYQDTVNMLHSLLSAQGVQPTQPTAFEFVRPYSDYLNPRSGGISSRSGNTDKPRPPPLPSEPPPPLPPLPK
Outline: as §1

[6] = target: CDK7/Cyclin H/MAT1 complex (Homo sapiens, UniProt P50613); test: CDK7 inhibition assay (Caliper/LabChip EZ Reader kinase assay); assay type: biochemical; conditions: Table 1, CDK7/Cyclin H/MAT1 6 nM, ATP 2 mM, 35 min at 27° C.
CDK7/Cyclin H/MAT1 complex, sequence (P50613 whole entry, species assumed): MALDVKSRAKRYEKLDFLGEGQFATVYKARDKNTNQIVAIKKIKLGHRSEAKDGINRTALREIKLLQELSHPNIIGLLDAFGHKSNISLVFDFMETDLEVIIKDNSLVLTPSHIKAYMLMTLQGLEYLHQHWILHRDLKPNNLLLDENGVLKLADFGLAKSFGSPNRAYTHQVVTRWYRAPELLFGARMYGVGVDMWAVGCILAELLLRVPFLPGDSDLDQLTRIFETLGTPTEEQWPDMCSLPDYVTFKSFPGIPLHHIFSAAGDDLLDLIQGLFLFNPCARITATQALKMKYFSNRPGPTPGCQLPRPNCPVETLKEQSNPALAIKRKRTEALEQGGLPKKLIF
CDK7/Cyclin H/MAT1 complex, sequence (P51946 whole entry partner, species assumed): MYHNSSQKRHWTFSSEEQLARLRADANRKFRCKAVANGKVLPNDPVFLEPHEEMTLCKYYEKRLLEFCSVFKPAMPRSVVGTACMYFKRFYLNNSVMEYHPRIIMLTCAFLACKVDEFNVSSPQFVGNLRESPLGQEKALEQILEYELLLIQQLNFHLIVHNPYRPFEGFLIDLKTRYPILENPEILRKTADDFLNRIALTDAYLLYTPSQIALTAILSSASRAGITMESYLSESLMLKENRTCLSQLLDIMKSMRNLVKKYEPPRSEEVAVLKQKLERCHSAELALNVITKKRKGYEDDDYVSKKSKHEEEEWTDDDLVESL
CDK7/Cyclin H/MAT1 complex, sequence (P51948 whole entry partner, species assumed): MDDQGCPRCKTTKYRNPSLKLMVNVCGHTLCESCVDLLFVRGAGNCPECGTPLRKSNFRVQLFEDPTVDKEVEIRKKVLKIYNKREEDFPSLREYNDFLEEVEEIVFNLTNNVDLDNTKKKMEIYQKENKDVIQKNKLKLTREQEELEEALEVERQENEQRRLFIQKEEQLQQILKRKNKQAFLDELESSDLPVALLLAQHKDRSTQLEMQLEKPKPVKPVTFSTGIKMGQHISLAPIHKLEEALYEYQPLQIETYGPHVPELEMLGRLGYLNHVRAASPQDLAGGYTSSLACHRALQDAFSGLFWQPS
Outline: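 A Perkin Elmer Caliper/LabChip EZ Reader (Waltham, MA) platform served as the basis for this CDK7 kinase inhibition assay. The work was carried out by Biortus Biosciences, located in Jiangyin, Jiangsu Province, P.R. of China. Each CDK studied had its own kinase assay, and compounds were evaluated for their ability to block CDK7 activity.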

SMILES	IC50 [1] [nM]	IC50 [4] [nM]	IC50 [5] [nM]	IC50 [6] [nM]	IC50 ([1]; listed as 107) [nM]	IC50 ([4]; listed as 107) [nM]	IC50 ([5]; listed as 107) [nM]	IC50 ([6]; listed as 107) [nM]	IC50 ([2]; Homo sapiens, A673, 72 h) [nM]	IC50 ([3]; Homo sapiens, HCC70, 72 h) [nM]	IC50 [2] [nM]	IC50 [3] [nM]	IC50 ([2]; listed as 107) [nM]
N#Cc1ccc2c(-c3nc(N[C@H]4CCCNC4)ncc3C(F)(F)F)c[nH]c2n1 [Compound 251, 3-[2-[[(3S)-3-piperidyl]amino]-5-(trifluoromethyl)pyrimidin-4-yl]-1H-pyrrolo [2,3-b] pyridine-6-carbonitrile]	200 to 5000	200 to 5000	200 to 5000	< 20					< 20	< 100			
C=CC(=O)N1CCC(CO[C@H]2CNC[C@@H](Nc3ncc(C(F)(F)F)c(-c4c[nH]c5c(S(C)(=O)=O)cccc45)n3)C2)CC1 [Compound 264]	> 5000	200 to 5000	> 5000	20 to 200					< 20	100 to 1000			
FC(F)(F)c1cnc(N[C@@H]2CNC[C@H](c3nnc4ccccn34)C2)nc1-c1c[nH]c2ccccc12 [Compound 267]	200 to 5000	200 to 5000	200 to 5000	20 to 200							< 20	< 100	
O=C(c1ccc2c(-c3nc(N[C@H]4CCCNC4)ncc3C(F)(F)F)c[nH]c2c1)N1CCCC1 [Compound 278, [3-[2-[[(3S)-3-piperidyl]amino]-5-(trifluoromethyl)pyrimidin-4-yl]-1H-indol-6-yl]-Pyrrolidin-1-yl-methanone]	200 to 5000	200 to 5000	> 5000	20 to 200					20 to 200	100 to 1000			
COCn1cc(-c2nc(NC3CCCNC3)ncc2C(F)(F)F)c2ccc(C#N)nc21 (centres unmarked) [Compound 283]	> 5000	> 5000	> 5000	200 to 5000					200 to 5000	1000 to 5000			
CCN1CCC[C@H](Nc2ncc(C(F)(F)F)c(-c3c[nH]c4cc(C#N)ccc34)n2)C1 [Compound 284]	200 to 5000	200 to 5000	200 to 5000	< 20					20 to 200	100 to 1000			
C[C@H]1CCNC[C@H]1Nc1ncc(C(F)(F)F)c(-c2c[nH]c3ccccc23)n1 [Compound 285]	> 5000	> 5000	> 5000	200 to 5000					< 20	< 100			
CCS(=O)(=O)c1cccc2c(-c3nc(N[C@H]4CCCNC4)ncc3C(F)(F)F)c[nH]c12 [Compound 286]	200 to 5000	200 to 5000	200 to 5000	< 20					200 to 5000	1000 to 5000			
CCc1cnc(N[C@H]2CCCNC2)nc1-c1c[nH]c2nc(C#N)ccc12 [Compound 287, (S)-3-(5-ethyl-2-(piperidin-3-ylamino)pyrimidin-4-yl)-1H-pyrrolo[2,3-b]pyridine-6-carbonitrile]	> 5000	> 5000	> 5000	< 20					20 to 200	100 to 1000			

Further lines, with some results ahead:

IC50 [1] [nM]	IC50 [4] [nM]	IC50 [5] [nM]	IC50 [6] [nM]	IC50 ([1]; listed as 107) [nM]	IC50 ([4]; listed as 107) [nM]	IC50 ([5]; listed as 107) [nM]	IC50 ([6]; listed as 107) [nM]	SMILES	IC50 ([2]; Homo sapiens, A673, 72 h) [nM]	IC50 ([3]; Homo sapiens, HCC70, 72 h) [nM]	IC50 [2] [nM]	IC50 [3] [nM]	IC50 ([2]; listed as 107) [nM]
200 to 5000	200 to 5000	200 to 5000	< 20					CC1(C)CC[C@H](Nc2ncc(C(F)(F)F)c(-c3c[nH]c4ccccc34)n2)CN1 [Compound 190]	< 20	100 to 1000			
200 to 5000	200 to 5000	200 to 5000	< 20					CS(=O)(=O)c1ccc2c(-c3nc(N[C@H]4CCCNC4)ncc3C(F)(F)F)c[nH]c2c1 [Compound 199, 4-(6-methylsulfonyl-1H-indol-3-yl)-N-[(3S)-3-piperidyl]-5-(trifluoromethyl) pyrimidin-2-amine]	< 20	100 to 1000			
200 to 5000	200 to 5000	200 to 5000	< 20					CS(=O)(=O)c1c(C#N)ccc2c(-c3nc(N[C@H]4CCCNC4)ncc3C(F)(F)F)c[nH]c12 [Compound 232, 7-methylsulfonyl-3-[2-[[(3S)-3-piperidyl]amino]-5-(trifluoromethyl)pyrimidin-4-yl]-1H-indole-6-carbonitrile]	< 20	< 100			
> 5000	> 5000	> 5000	< 20					CCc1cnc(N[C@H]2CCCNC2)nc1-c1c[nH]c2cc(C#N)ccc12 [Compound 246]			200 to 5000	100 to 1000	
200 to 5000	200 to 5000	200 to 5000	20 to 200					N#Cc1ccc2c(-c3nc(N[C@H]4CCCNC4)ncc3C(F)(F)F)c[nH]c2c1-c1ccnnc1 [Compound 261, 3-[2-[[(3S)-3-piperidyl]amino]-5-(trifluoromethyl)pyrimidin-4-yl]-7-pyridazin-4-yl-1H-indole-6-carbonitrile]	< 20	< 100			
> 5000	> 5000	> 5000	< 20					CCc1cnc(N[C@H]2CCCNC2)nc1-c1c[nH]c2c(S(C)(=O)=O)c(C#N)ccc12 [Compound 263, 3-[5-ethyl-2-[[(3S)-3-piperidyl]amino]pyrimidin-4-yl]-7-methylsulfonyl-1H-indole-6-carbonitrile]	20 to 200	100 to 1000			
> 5000	> 5000	> 5000	200 to 5000					Cn1cc(-c2nc(NC3CCCNC3)ncc2C(F)(F)F)c2ccc(C#N)nc21 (centres unmarked) [Compound 273]	200 to 5000	1000 to 5000			
200 to 5000	200 to 5000	200 to 5000	< 20					CCc1cnc(N[C@H]2CCCNC2)nc1-c1n[nH]c2nc(C#N)ccc12 [Compound 277, (S)-3-(5-ethyl-2-(piperidin-3-ylamino)pyrimidin-4-yl)-1H-pyrazolo[3,4-b]pyridine-6-carbonitrile]	20 to 200	100 to 1000			
> 5000	> 5000	> 5000	20 to 200					Cn1cc(-c2nc(NC3CCCNC3)ncc2C(F)(F)F)c2cccc(C#N)c21 (centres unmarked) [Compound 279]	200 to 5000	1000 to 5000			
200 to 5000	200 to 5000	200 to 5000	20 to 200					FC(F)n1ccc(-c2ccc3c(-c4nc(N[C@H]5CCCNC5)ncc4C(F)(F)F)c[nH]c3c2)n1 [Compound 289, 4-[6-[1-(difluoromethyl)pyrazol-3-yl]-1H-indol-3-yl]-N-[(3S)-3-piperidyl]-5-(trifluoromethyl) pyrimidin-2-amine]	20 to 200	100 to 1000			
200 to 5000	200 to 5000	200 to 5000	20 to 200					FC(F)n1cc(-c2ccc3c(-c4nc(N[C@H]5CCCNC5)ncc4C(F)(F)F)c[nH]c3c2)cn1 [Compound 290, 4-[6-[1-(difluoromethyl)pyrazol-4-yl]-1H-indol-3-yl]-N-[(3S)-3-piperidyl]-5-(trifluoromethyl) pyrimidin-2-amine]	20 to 200	100 to 1000			
200 to 5000	200 to 5000	200 to 5000	< 20					FC(F)(F)c1cnc(N[C@H]2CCCNC2)nc1-c1c[nH]c2cc(-c3ccn[nH]3)ccc12 [Compound 291, N-[(3S)-3-piperidyl]-4-[6-(1H-pyrazol-3-yl)-1H-indol-3-yl]-5-(trifluoromethyl) pyrimidin-2-amine]	20 to 200	100 to 1000			
200 to 5000	200 to 5000	200 to 5000	< 20	200 to 5000	20 to 200	200 to 5000	20 to 200	N#C[C@@H]1CCN(C(=O)c2ccc3c(-c4nc(N[C@H]5CCCNC5)ncc4C(F)(F)F)c[nH]c3c2)C1 [Compound 292, (3R)-1-[3-[2-[[(3S)-3-piperidyl]amino]-5-(trifluoromethyl)pyrimidin-4-yl]-1H-indole-6-carbonyl] pyrrolidine-3-carbonitrile]	20 to 200	100 to 1000			< 20
